Experimental data as given in PubChem BioAssay (NCI).
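96-well plates; 48 h exposure; 5 concentrations. Endpoints by linear interpolation between flanking doses. Not reached: highest tested concentration assigned. TGI denotes the concentration required for complete inhibition of growth.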

What was measured:
Experiment in all cases: DTP human tumour cell line panel, 48 h
[1] = test system: SK-MEL-28 melanoma
[2] = test system: M14 melanoma
[3] = test system: COLO 205 colon
[4] = test system: MDA-N
[5] = test system: HT29 colon
[6] = test system: OVCAR-3 ovarian
[7] = test system: UO-31 renal
[8] = test system: BT-549 breast
[9] = test system: RXF 393 renal
[10] = test system: K-562 leukemia
[11] = test system: HS 578T breast
[12] = test system: MDA-MB-231 breast
[13] = test system: HCT-15 colon
[14] = test system: PC-3 prostate
[15] = test system: LOX IMVI melanoma
[16] = test system: OVCAR-5 ovarian
[17] = test system: KM12 colon
[18] = test system: RPMI-8226 leukemia
[19] = test system: CAKI-1 renal
[20] = test system: EKVX NSCLC
[21] = test system: SN12C renal
[22] = test system: SNB-19 CNS
[23] = test system: SK-OV-3 ovarian
[24] = test system: UACC-62 melanoma
[25] = test system: SK-MEL-2 melanoma
[26] = test system: U251 CNS
[27] = test system: MDA-MB-435
[28] = test system: UACC-257 melanoma
[29] = test system: MOLT-4 leukemia
[30] = test system: MCF7 breast
[31] = test system: HL-60(TB) leukemia
[32] = test system: NCI/ADR-RES ovarian
[33] = test system: 786-0 renal
[34] = test system: DU-145 prostate
[35] = test system: MALME-3M melanoma
[36] = test system: ACHN renal
[37] = test system: SW-620 colon
[38] = test system: TK-10 renal
[39] = test system: A498 renal
[40] = test system: SK-MEL-5 melanoma
[41] = test system: HCT-116 colon
[42] = test system: IGROV1 ovarian
[43] = test system: SF-268 CNS
[44] = test system: T-47D breast
[45] = test system: CCRF-CEM leukemia
[46] = test system: NCI-H23 lung
[47] = test system: OVCAR-8 ovarian
[48] = test system: SF-539 CNS
[49] = test system: SF-295 CNS
[50] = test system: NCI-H226 lung
[51] = test system: A549 NSCLC
[52] = test system: OVCAR-4 ovarian
[53] = test system: NCI-H460 lung
[54] = test system: HOP-62 NSCLC
[55] = test system: HOP-92 NSCLC
[56] = test system: SNB-75 CNS
[57] = test system: HCC-2998 colon

## COc1ccc(/C=C2\CCC(C)/C(=C\c3ccc(OC)c(OC)c3)C2=O)cc1OC (configuration not stated)
[1]
  TGI: 48.1 µM
[2]
  TGI: 31.2 µM
[3]
  TGI: 54.2 µM
[4]
  TGI: > 100 µM
[5]
  TGI: 52.9 µM
[6]
  TGI: > 100 µM
[7]
  TGI: 23.3 µM
[8]
  TGI: 20.3 µM
[9]
  TGI: 24.2 µM
[10]
  TGI: 67.3 µM
[11]
  TGI: 88.3 µM
[12]
  TGI: 60.8 µM
[13]
  TGI: 21.2 µM
[14]
  TGI: 23.4 µM
[15]
  TGI: 19.2 µM
[16]
  TGI: 26.6 µM
[17]
  TGI: 7.04 µM
[18]
  TGI: 8.01 µM
[19]
  TGI: 21.6 µM
[20]
  TGI: 10.2 µM
[21]
  TGI: 36.5 µM
[22]
  TGI: 39.3 µM
[23]
  TGI: 42.3 µM
[24]
  TGI: 23.1 µM
[25]
  TGI: 25.3 µM
[26]
  TGI: > 100 µM
[27]
  TGI: > 100 µM
[28]
  TGI: 21.5 µM
[29]
  TGI: 11.7 µM
[30]
  TGI: 22.3 µM
[31]
  TGI: 5.93 µM
[32]
  TGI: 32.5 µM
[33]
  TGI: 19.4 µM
[34]
  TGI: 21 µM
[35]
  TGI: 22 µM
[36]
  TGI: 16.7 µM
[37]
  TGI: > 100 µM
[38]
  TGI: 7.41 µM
[39]
  TGI: 25.3 µM
[40]
  TGI: 17.5 µM
[41]
  TGI: 14.3 µM
[42]
  TGI: 14.6 µM
[43]
  TGI: 45.1 µM
[44]
  TGI: 28.2 µM
[45]
  TGI: 7.6 µM
[46]
  TGI: 15.6 µM
[47]
  TGI: 39.8 µM
[48]
  TGI: 13.8 µM
[49]
  TGI: 23 µM
[50]
  TGI: 38.8 µM

## [N-]=[N+]=Nc1c(C=O)c(=O)n(-c2ccccc2)c2ccccc12
[1]
  TGI: 35.3 µM
[51]
  TGI: > 100 µM
[2]
  TGI: 34.1 µM
[52]
  TGI: 37.4 µM
[3]
  TGI: 46.5 µM
[4]
  TGI: > 100 µM
[5]
  TGI: 55.1 µM
[6]
  TGI: 32.4 µM
[7]
  TGI: 31.9 µM
[8]
  TGI: > 100 µM
[9]
  TGI: 27.2 µM
[53]
  TGI: > 100 µM
[10]
  TGI: 21.5 µM
[11]
  TGI: 79.1 µM
[12]
  TGI: > 100 µM
[13]
  TGI: 46.4 µM
[14]
  TGI: 43.8 µM
[15]
  TGI: 31.3 µM
[16]
  TGI: > 100 µM
[17]
  TGI: > 100 µM
[19]
  TGI: 27.7 µM
[21]
  TGI: > 100 µM
[22]
  TGI: > 100 µM
[23]
  TGI: > 100 µM
[24]
  TGI: 28.8 µM
[25]
  TGI: 80.5 µM
[26]
  TGI: > 100 µM
[27]
  TGI: 34.5 µM
[28]
  TGI: 50.1 µM
[29]
  TGI: 12.7 µM
[30]
  TGI: 64.2 µM
[54]
  TGI: > 100 µM
[55]
  TGI: 31.1 µM
[31]
  TGI: > 100 µM
[32]
  TGI: 88.5 µM
[33]
  TGI: 35 µM
[34]
  TGI: > 100 µM
[35]
  TGI: 45.3 µM
[36]
  TGI: 40.7 µM
[37]
  TGI: 7.53 µM
[38]
  TGI: 39.1 µM
[39]
  TGI: 10.1 µM
[40]
  TGI: 27.5 µM
[42]
  TGI: 44.8 µM
[43]
  TGI: > 100 µM
[44]
  TGI: 61.4 µM
[45]
  TGI: 18.9 µM
[56]
  TGI: 94.2 µM
[46]
  TGI: 38 µM
[48]
  TGI: > 100 µM
[49]
  TGI: > 100 µM
[57]
  TGI: 40.1 µM
